For 1 molecule, Kd results are on record in PMC11976443 (2025).

In the assay the test system is 5' FAM-CoA-seq10 aptamer (DNA, aptamer) ATGCAGTCGGCGTCGGACAGGCAAAGGGGAGAGTGATTATAATCACTCGGGACATGGGATCTGTCCGACGATGTAACGCTTCAC
The assay is described as follows: fluorescence strand displacement. To be noted: apparent; 50 nM aptamer, 1:5 3'-BHQ1 capture strand CTGTCCGACGCCGAC displaced.

Take `CC(C)(COP(=O)(O)OP(=O)(O)OC[C@H]1O[C@@H](n2cnc3c(N)ncnc32)[C@H](O)[C@@H]1OP(=O)(O)O)[C@@H](O)C(=O)NCCC(=O)NCCS`: the Kd stood at 1133 µM.
